Source: patent US4129737A, “Process for the preparation of an 8-alkyl-5-oxo-5,8-dihydro-pyrido(2,3-d)pyrimidine-6-carboxylic acid” (priority 1972, dated 1978)
Converted amounts (≈) assume the structure as drawn. Where two headings read alike, the source gives them in different places.

Assays:
Assay type in all cases: cell-based
B. pyocyaneus A22 = experiment: Minimum inhibitory concentration by agar dilution, B. pyocyaneus A22; conditions: Pseudomonas aeruginosa
Method: (§1) (a) Trypticase soya medium (T.S.A.), which is very suitable for culturing the majority of microorganisms; it has the following composition:
(§2) (b) Ordinarily nutrient agar (N.A.), which is less rich in nutrients, corresponds to the following formulation: […]
(§3) Table I gives the minimum inhibitory concentrations (expressed in μg/cm^3) for the various microorganisms tested on each medium.
(§4) The products were tested on three Gram positive microorganisms (1 to 3) […] and on 10 Gram negative microorganisms (4 to 13).
(§5) Table (II) gives the minimum inhibitory concentrations of the compounds of Examples XII to XVI, determined on the agar medium, N.A., and expressed in μg/cm^3.

Esch. Coli 95 = experiment: Minimum inhibitory concentration by agar dilution, Esch. Coli 95; conditions: Escherichia coli
Method: as §1, §2, §3, §4, §5

B. subtilis = experiment: Minimum inhibitory concentration by agar dilution, B. subtilis; conditions: Bacillus subtilis
Method: as §1, §2, §3, §4, §5

Streptococcus = experiment: Minimum inhibitory concentration by agar dilution, Streptococcus Group A
Method: as §1, §2, §3, §4, §5

[1] = system: Gram-negative microorganisms; experiment: In vitro anti-microbial activity on agar media, overall; conditions: in vitro
Method: as §4

B. pyocyaneus TUR = experiment: Minimum inhibitory concentration by agar dilution, B. pyocyaneus TUR; conditions: Pseudomonas aeruginosa, 37° C., 18 hours
Method: as §1, §2, §3, §4

Sh. sonnei = experiment: Minimum inhibitory concentration by agar dilution, Sh. sonnei; conditions: Shigella sonnei
Method: as §1, §2, §3, §4, §5

Salm. typhi = experiment: Minimum inhibitory concentration by agar dilution, Salm. typhi; conditions: Salmonella enterica, 18 h
Method: as §1, §2, §3, §4, §5

Bord. bronchiseptica = experiment: Minimum inhibitory concentration by agar dilution, Bord. bronchiseptica; conditions: Bordetella bronchiseptica
Method: as §1, §2, §3, §4, §5

Pr. mirabilis = experiment: Minimum inhibitory concentration by agar dilution, Pr. mirabilis; conditions: Proteus mirabilis
Method: as §1, §2, §3, §4, §5

Pr. vulgaris = experiment: Minimum inhibitory concentration by agar dilution, Pr. vulgaris; conditions: Proteus vulgaris
Method: as §1, §2, §3, §4, §5

Pr. morganii = experiment: Minimum inhibitory concentration by agar dilution, Pr. morganii; conditions: Morganella morganii
Method: as §1, §2, §3, §4, §5

Klebs. pneumoniae = experiment: Minimum inhibitory concentration by agar dilution, Klebs. pneumoniae; conditions: Klebsiella pneumoniae
Method: as §1, §2, §3, §4, §5

Staphylococcus 209 P = experiment: Minimum inhibitory concentration by agar dilution, Staphylococcus 209 P
Method: as §1, §2, §3, §4, §5

[2] = N.A. (nutrient agar, pH 6.8), 37° C., 18 hours, Table I, read-out: minimum inhibitory concentration (M.I.C.)
[3] = T.S.A. (trypticase soya medium, pH 7.3), 37° C., 18 hours, read-out: minimum inhibitory concentration (M.I.C.)
[4] = 18 h, pH 7.3, read-out: minimum inhibitory concentration (M.I.C.)
[5] = A22, 18 h, agar medium, N.A., Table II, read-out: minimum inhibitory concentration
[6] = 18 h, agar medium, N.A., Table II, read-out: minimum inhibitory concentration
[7] = read-out: minimum inhibitory concentration
[8] = 18 h, read-out: minimum inhibitory concentration
[9] = 18 h, agar medium, N.A., Table II (Staphylococcus 20 P [sic]), read-out: minimum inhibitory concentration

For CCn1cc(C(=O)O)c(=O)c2cnc(N3CCN(CCO)CC3)nc21 [Example VI, 2-(4-β-Hydroxyethyl-piperazino)-5-oxo-8-ethyl-5,8-dihydropyrido(2,3-d)pyrimidine-6-carboxylic acid], the MIC (B. pyocyaneus A22; A22, N.A. (nutrient agar, pH 6.8), 37° C., 18 hours, Table I, read-out: minimum inhibitory concentration (M.I.C.)) was 50 µg/mL (≈ 144 µM), the MIC (B. pyocyaneus A22; A22, T.S.A. (trypticase soya medium, pH 7.3), 37° C., 18 hours, read-out: minimum inhibitory concentration (M.I.C.)) was greater than 100 µg/mL and the MIC (Esch. Coli 95; [2]) was 1.6 µg/mL (≈ 4.61 µM). The MIC (Esch. Coli 95; [3]) was 3.1 µg/mL (≈ 8.92 µM), the MIC (B. subtilis; [2]) was 1.6 µg/mL (≈ 4.61 µM) and the MIC (B. subtilis; [3]) was 3.1 µg/mL (≈ 8.92 µM). For the same compound, the MIC (Streptococcus; [4]) was 12.5 µg/mL (≈ 36 µM), the MIC (Streptococcus; [2]) was 3.1 µg/mL (≈ 8.92 µM) and the “activity against Gram-negative microorganisms” value [1] was “particularly active against Gram-negative microorganisms”. The MIC (B. pyocyaneus TUR; N.A. (nutrient agar, pH 6.8), Table I) was 50 µg/mL (≈ 144 µM), the MIC (B. pyocyaneus TUR; T.S.A. (trypticase soya medium, pH 7.3), read-out: minimum inhibitory concentration (M.I.C.)) was greater than 100 µg/mL and the MIC (Sh. sonnei; [2]) was 1.6 µg/mL (≈ 4.61 µM). For the same compound, the MIC (Sh. sonnei; [3]) was 1.6 µg/mL (≈ 4.61 µM), the MIC (Salm. typhi; pH 6.8, read-out: minimum inhibitory concentration (M.I.C.)) was 12.5 µg/mL (≈ 36 µM) and the MIC (Salm. typhi; pH 7.3, read-out: minimum inhibitory concentration (M.I.C.)) was 6.2 µg/mL (≈ 17.8 µM). The MIC (Bord. bronchiseptica; [2]) was 50 µg/mL (≈ 144 µM), the MIC (Bord. bronchiseptica; [3]) was greater than 100 µg/mL and the MIC (Pr. mirabilis; [4]) was 12.5 µg/mL (≈ 36 µM). It also gave an MIC (Pr. mirabilis; [2]) of 3.1 µg/mL (≈ 8.92 µM), an MIC (Pr. vulgaris; [2]) of 50 µg/mL (≈ 144 µM) and an MIC (Pr. vulgaris; [3]) of 6.2 µg/mL (≈ 17.8 µM). It also gave an MIC (Pr. morganii; [2]) of 1.6 µg/mL (≈ 4.61 µM), an MIC (Pr. morganii; [3]) of 1.6 µg/mL (≈ 4.61 µM) and an MIC (Klebs. pneumoniae; [2]) of 0.4 µg/mL (≈ 1.15 µM). It also gave an MIC (Klebs. pneumoniae; [3]) of 1.6 µg/mL (≈ 4.61 µM), an MIC (Staphylococcus 209 P; Staphylococcus, 18 h, pH 7.3, read-out: minimum inhibitory concentration (M.I.C.)) of 12.5 µg/mL (≈ 36 µM) and an MIC (Staphylococcus 209 P; Staphylococcus, N.A. (nutrient agar, pH 6.8), 37° C., 18 hours, Table I, read-out: minimum inhibitory concentration (M.I.C.)) of 3.1 µg/mL (≈ 8.92 µM).
CCCN1CCN(c2ncc3c(=O)c(C(=O)O)cn(CC)c3n2)CC1 [XIII, 2-(4'-Propyl-piperazino)-5-oxo-8-ethyl-5,8-dihydro-pyrido(2,3-d)pyrimidine-6-carboxylic acid] was tested, and the MIC (B. pyocyaneus A22; [5]) was 100 µg/mL (≈ 290 µM), the MIC (Esch. Coli 95; [6]) was 50 µg/mL (≈ 145 µM) and the MIC (B. subtilis; [6]) was 3.1 µg/mL (≈ 8.98 µM). It also gave an MIC (Streptococcus; [6]) of 6.2 µg/mL (≈ 18 µM), an MIC (Sh. sonnei; [6]) of 1.6 µg/mL (≈ 4.63 µM) and an MIC (Salm. typhi; [7]) of 12.5 µg/mL (≈ 36.2 µM). The MIC (Bord. bronchiseptica; [8]) was 12.5 µg/mL (≈ 36.2 µM), the MIC (Pr. mirabilis; [8]) was 12.5 µg/mL (≈ 36.2 µM) and the MIC (Pr. vulgaris; [6]) was 6.2 µg/mL (≈ 18 µM). The MIC (Pr. morganii; [6]) was 6.2 µg/mL (≈ 18 µM), the MIC (Klebs. pneumoniae; [6]) was 1.6 µg/mL (≈ 4.63 µM) and the MIC (Staphylococcus 209 P; [9]) was 6.2 µg/mL (≈ 18 µM).
In the case of CCn1cc(C(=O)O)c(=O)c2cnc(N3CCN(Cc4ccc(Cl)cc4)CC3)nc21 [XV, 2-(4'-p-Chlorobenzyl-piperazino)-5-oxo-8-ethyl-5,8-dihydro-pyrido(2,3-d)pyrimidine-6-carboxylic acid], the MIC (B. pyocyaneus A22; [5]) is reported as 50 µg/mL (≈ 117 µM), the MIC (Esch. Coli 95; [6]) is reported as 100 µg/mL (≈ 234 µM) and the MIC (B. subtilis; [6]) is reported as 1.6 µg/mL (≈ 3.74 µM). The MIC (Streptococcus; [6]) was 1.6 µg/mL (≈ 3.74 µM), the MIC (Sh. sonnei; [6]) was 1.6 µg/mL (≈ 3.74 µM) and the MIC (Salm. typhi; [7]) was 12.5 µg/mL (≈ 29.2 µM). The MIC (Bord. bronchiseptica; [6]) was 3.1 µg/mL (≈ 7.24 µM), the MIC (Pr. mirabilis; [8]) was 12.5 µg/mL (≈ 29.2 µM) and the MIC (Pr. vulgaris; [8]) was 12.5 µg/mL (≈ 29.2 µM). For the same compound, the MIC (Pr. morganii; [6]) was 6.2 µg/mL (≈ 14.5 µM), the MIC (Klebs. pneumoniae; [6]) was 0.8 µg/mL (≈ 1.87 µM) and the MIC (Staphylococcus 209 P; [9]) was 0.8 µg/mL (≈ 1.87 µM).
